Data published in patent US12357656B2 (AMORPHICAL LTD, priority 2019, dated 2025).

Tests used:
[1] = Titration of DPBS and DMEM/F12 + 10% FBS with different carbonate sources (pH effect); type: physicochemical; conditions: for Amount in ml that was needed to reach pH 8: 73.5 mM carbonate suspension or solution
Excerpt: Two commercial media, Dulbecco's phosphate-buffered saline (DPBS) and Gibco Dulbecco's Modified Eagle Medium: Nutrient Mixture F-12 (DMEM/F12), with 10% Fetal Bovine Serum (FBS) were used to evaluate the pH effect of different sources of calcium carbonate. DPBS is Dulbecco's Phosphate Buffered Saline, generally serves as an isotonic saline solution or buffer for washing cells and tissues and intends to provide a buffer system for maintaining cell culture media in the physiological range of 7.2-7.6.
DMEM/F12 is a widely used basal medium for supporting the growth of many different mammalian cells. DMEM/F12 medium+10% FBS was used to maximally mimic the environment of the body fluids.
Three sources of calcium carbonate were used ACC, Sodium bicarbonate (SBC) and Crystalline Calcium Carbonate (CCC).
The final composition comprised 73.53 mM of CaCO3 in the water suspension.
The addition was done until a pH plateau was accomplished or the level of the solution reached the end of the capacity of the used container (˜130 ml).

[2] = test system: athletes; conditions: about 20-35 g/day; cited from earlier work
[3] = chronic ingestion, 300 to 500 mg/kg; Lopes-Silva; cited from earlier work
[4] = human performance; Requena 2005; cited from earlier work
[5] = oral administration of 300 mg/kg; Zajac 2009; cited from earlier work
[6] = supplementation; Sounders 2016; cited from earlier work

| SMILES | Final pH ([1]; added to DMEM/F12 + 10% FBS) | Amount in ml that was needed to reach pH 8 ([1]; added to DMEM/F12 + 10% FBS) [ml] | Final pH ([1]; added to DPBS) | Amount in ml that was needed to reach pH 8 ([1]; added to DPBS) [ml] | reported adverse effects [2] | Wingate test peak or mean power [3] | doses for which a significant effect was shown [4] | capability to reach higher pH levels ([1]; SBC compared with CCC) | training intensity and swimming performance [5] | effect on exercise [6] |
| --- | --- | --- | --- | --- | --- | --- | --- | --- | --- | --- |
| O=C([O-])[O-].[Ca+2] [CCC, Crystalline Calcium Carbonate] | 7.90 | 80 | 8 | 65 |  |  |  |  |  |  |
| O=C([O-])O.[Na+] [SBC, Sodium bicarbonate] | 8.3 | 77 | 8.30 | 76.4 | stomach aches and discomfort, nausea, and vomiting | chronic ingestion of NaHCO3 did | above 300 mg/kg | not significantly different | can increase training intensity and swimming performance |  |
| NCCC(=O)O [β-alanine] |  |  |  |  |  |  |  |  |  | significant overall ergogenic effect |
